What was measured:
[1] = target: T1, complement C5a receptor 1 (C5aR1) (Homo sapiens, UniProt P21730); experiment: β-arrestin recruitment via C5aR1 activation in live CHO-K1 cells (PathHunter), antagonist mode; format: cell-based; conditions: antagonist mode; recombinant hC5a (EC90) as competing natural agonist; live CHO-K1 cells; read-out: [Antagonist] B-arrestin2 recruitment: Average IC50
T1 construct: β-galactosidase fragment (PathHunter enzyme complementation); host or cells: CHO-K1 (PathHunter CHO-K1 C5aR1 β-arrestin cell line)
T1 sequence (P21730 1-350): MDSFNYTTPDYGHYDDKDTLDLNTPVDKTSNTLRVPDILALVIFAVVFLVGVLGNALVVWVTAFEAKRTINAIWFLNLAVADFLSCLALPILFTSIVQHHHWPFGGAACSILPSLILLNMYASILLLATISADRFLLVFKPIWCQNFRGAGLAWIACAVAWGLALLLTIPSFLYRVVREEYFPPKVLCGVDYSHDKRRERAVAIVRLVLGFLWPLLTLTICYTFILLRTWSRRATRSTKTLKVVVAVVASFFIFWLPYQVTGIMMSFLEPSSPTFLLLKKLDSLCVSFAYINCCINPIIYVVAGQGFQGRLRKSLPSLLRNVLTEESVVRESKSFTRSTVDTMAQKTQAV
Summary of the method: (§1)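 β-arrestin recruitment to C5aR1 in CHO-K1 cells is detected by enzyme-fragment complementation. Antagonism is measured against recombinant hC5a at its EC90; agonism is measured with compound alone. Potencies are grouped into IC50 categories.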

[2] = target: T1, complement C5a receptor 1 (C5aR1); experiment: β-arrestin recruitment via C5aR1 activation in live CHO-K1 cells (PathHunter), agonist mode; format: cell-based
Summary of the method: as §1

Row | SMILES | IC50 [1] | [Agonist] B-arrestin2 recruitment: Average EC50 (nM) [2]
1 | Cc1ncc(F)cc1N1CCC(c2cc3nccnc3n(Cc3ncccc3C(F)(F)F)c2=O)CC1 [compound 44, 7-(1-(5-Fluoro-2-methylpyridin-3-yl)piperidin-4-yl)-5-((3-(trifluoromethyl)pyridin-2-yl)methyl)pyrido[2,3-b]pyrazin-6(5H)-one] | > 100 µM | Non-Active
2 | Cc1ncc(F)cc1N1CCC(c2cc3nccnc3n(Cc3nccnc3C(F)(F)F)c2=O)CC1 [compound 45, 7-(1-(5-Fluoro-2-methylpyridin-3-yl)piperidin-4-yl)-5-((3-(trifluoromethyl)pyrazin-2-yl)methyl)pyrido[2,3-b]pyrazin-6(5H)-one] | > 100 µM | Non-Active
3 | Cc1cccc(F)c1N1CC(c2cc3nccnc3n(Cc3ncccc3C(F)(F)F)c2=O)C1 [compound 48, 7-(1-(2-Fluoro-6-methylphenyl)azetidin-3-yl)-5-((3-(trifluoromethyl)pyridin-2-yl)methyl)pyrido[2,3-b]pyrazin-6(5H)-one] | 0.5 to 5 µM | Non-Active
4 | Cc1cnc2c(=O)n(C3CCN(c4c(C)cccc4F)CC3)c(=O)n(Cc3ncccc3C(F)(F)F)c2n1 [compound 50, 3-(1-(2-Fluoro-6-methylphenyl)piperidin-4-yl)-7-methyl-1-((3-(trifluoromethyl)pyridin-2-yl)methyl)pteridine-2,4(1H,3H)-dione] | 0.5 to 5 µM | Non-Active
5 | CCOc1ncc2cc(C3CCN(c4c(C)cccc4F)CC3)c(=O)n(Cc3nccnc3C(F)(F)F)c2n1 [compound 51, 2-Ethoxy-6-(1-(2-fluoro-6-methylphenyl)piperidin-4-yl)-8-((3-(trifluoromethyl)pyrazin-2-yl)methyl)pyrido[2,3-d]pyrimidin-7(8H)-one] | 0.5 to 5 µM | Non-Active
6 | Cc1cnc2cc(C3CCN(c4cc(F)cnc4C)CC3)c(=O)n(Cc3nccnc3C(F)(F)F)c2n1 [compound 52, 7-(1-(5-Fluoro-2-methylpyridin-3-yl)piperidin-4-yl)-3-methyl-5-((3-(trifluoromethyl)pyrazin-2-yl)methyl)pyrido[2,3-b]pyrazin-6(5H)-one] | > 100 µM | Non-Active
7 | COc1cnc2cc(C3CCN(c4c(C)cccc4F)CC3)c(=O)n(Cc3ncccc3C(F)(F)F)c2n1 [compound 54, 7-(1-(2-Fluoro-6-methylphenyl)piperidin-4-yl)-3-methoxy-5-((3-(trifluoromethyl)pyridin-2-yl)methyl)pyrido[2,3-b]pyrazin-6(5H)-one] | > 100 µM | Non-Active
8 | Cc1cnc2c(cc(C3CCN(c4c(C)cccc4F)CC3)c(=O)n2Cc2ccccc2C(F)(F)F)n1 [compound 55, 7-(1-(2-Fluoro-6-methylphenyl)piperidin-4-yl)-2-methyl-5-(2-(trifluoromethyl)-benzyl)-pyrido[2,3-b]pyrazin-6(5H)-one] | 0.5 to 5 µM | Non-Active
9 | Cc1cnc2cc(C3CCN(c4cc(F)cnc4C)CC3)c(=O)n(Cc3ncccc3C(F)(F)F)c2n1 [compound 56, 7-(1-(5-fluoro-2-methylpyridin-3-yl)piperidin-4-yl)-3-methyl-5-((3-(trifluoromethyl)-pyridin-2-yl)methyl)pyrido[2,3-b]pyrazin-6(5H)-one] | 5 to 100 µM | Non-Active
10 | COc1cnc2cc(C3CCN(c4c(C)cccc4F)CC3)c(=O)n(Cc3ccccc3C(F)(F)F)c2n1 [compound 58, 7-(1-(2-Fluoro-6-methylphenyl)piperidin-4-yl)-3-methoxy-5-(2-(trifluoromethyl)benzyl)pyrido[2,3-b]pyrazin-6(5H)-one] | 0.5 to 5 µM | Non-Active
11 | Cc1cnc2cc(N3CCN(c4cc(F)cnc4C)CC3)c(=O)n(Cc3nccnc3C(F)(F)F)c2n1 [compound 59, 7-(4-(5-Fluoro-2-methylpyridin-3-yl)piperazin-1-yl)-3-methyl-5-((3-(trifluoromethyl)pyrazin-2-yl)methyl)pyrido[2,3-b]pyrazin-6(5H)-one] | > 100 µM | Non-Active
12 | Cc1ccnc(F)c1N1CCC(c2c(C)c3nccnc3n(Cc3ncccc3C(F)(F)F)c2=O)CC1 [compound 62, 7-(1-(2-Fluoro-4-methylpyridin-3-yl)piperidin-4-yl)-8-methyl-5-((3-(trifluoromethyl)pyridin-2-yl)methyl)pyrido[2,3-b]pyrazin-6(5H)-one] | 0.5 to 5 µM | Non-Active
13 | Cc1cnc2c(C)c(C3CCN(c4c(C)ccnc4F)CC3)c(=O)n(Cc3nccnc3C(F)(F)F)c2n1 [compound 63, 7-(1-(2-Fluoro-4-methylpyridin-3-yl)piperidin-4-yl)-3,8-dimethyl-5-((3-(trifluoromethyl)pyrazin-2-yl)methyl)pyrido[2,3-b]pyrazin-6(5H)-one] | 0.5 to 5 µM | Non-Active
14 | O=c1c(C2CCN(c3ccccc3C(F)(F)F)CC2)cc2nccnc2n1Cc1nccnc1C(F)(F)F [compound 64, 7-(1-(2-(Trifluoromethyl)phenyl)piperidin-4-yl)-5-((3-(trifluoromethyl)pyrazin-2-yl)methyl)pyrido[2,3-b]pyrazin-6(5H)-one] | 0.5 to 5 µM | Non-Active
15 | COc1cnc2c(cc(C3CCN(c4c(C)cccc4F)CC3)c(=O)n2Cc2ncccc2C(F)(F)F)n1 [compound 65, 7-(1-(2-Fluoro-6-methylphenyl)piperidin-4-yl)-2-methoxy-5-((3-(trifluoromethyl)pyridin-2-yl)methyl)pyrido[2,3-b]pyrazin-6(5H)-one] | 0.5 to 5 µM | Non-Active
16 | Cc1cnc2cc(N3CCN(c4cc(F)cnc4C)CC3)c(=O)n(Cc3ncccc3C(F)(F)F)c2n1 [compound 69, 7-(4-(5-Fluoro-2-methylpyridin-3-yl)piperazin-1-yl)-3-methyl-5-((3-(trifluoromethyl)pyridin-2-yl)methyl)pyrido[2,3-b]pyrazin-6(5H)-one] | > 100 µM | Non-Active

Now from value to molecule:

Row | IC50 [1] | [Agonist] B-arrestin2 recruitment: Average EC50 (nM) [2] | SMILES
17 | 0.5 to 5 µM | Non-Active | Cc1cccc(F)c1N1CCC(n2c(=O)c3nccnc3n(Cc3ncccc3C(F)(F)F)c2=O)CC1 [compound 42, 3-(1-(2-Fluoro-6-methylphenyl)piperidin-4-yl)-1-((3-(trifluoromethyl)pyridin-2-yl)methyl)pteridine-2,4(1H,3H)-dione]
18 | 0.5 to 5 µM | Non-Active | Cc1cccc(F)c1N1CCC(c2nc3nccnc3n(Cc3ccccc3OC(F)F)c2=O)CC1 [compound 46, 1-(2-(difluoromethoxy)benzyl)-3-(1-(2-fluoro-6-methylphenyl)piperidin-4-yl)pyrazino[2,3-b]pyrazin-2(1H)-one]
19 | 0.5 to 5 µM | Non-Active | Cc1ncc2cc(C3CCN(c4c(C)cccc4F)CC3)c(=O)n(Cc3nccnc3C(F)(F)F)c2n1 [compound 47, 6-(1-(2-Fluoro-6-methylphenyl)piperidin-4-yl)-2-methyl-8-((3-(trifluoromethyl)pyrazin-2-yl)methyl)pyrido[2,3-d]pyrimidin-7(8H)-one]
20 | < 0.5 µM | Non-Active | Cc1cccc(F)c1N1CCC(c2c(C)c3nccnc3n(Cc3ncccc3C(F)(F)F)c2=O)CC1 [compound 57, 7-(1-(2-Fluoro-6-methylphenyl)piperidin-4-yl)-8-methyl-5-((3-(trifluoromethyl)pyridin-2-yl)methyl)pyrido[2,3-b]pyrazin-6(5H)-one]
21 | < 0.5 µM | Non-Active | O=c1c(C2CCN(c3cnccc3C(F)(F)F)CC2)cc2nccnc2n1Cc1ncccc1C(F)(F)F [compound 60, 5-((3-(trifluoromethyl)pyridin-2-yl)methyl)-7-(1-(4-(trifluoromethyl)pyridin-3-yl)piperidin-4-yl)pyrido[2,3-b]pyrazin-6(5H)-one]
22 | < 0.5 µM | Non-Active | Cc1cnc2cc(C3CCN(c4c(C)cccc4F)CC3)c(=O)n(Cc3ncccc3OC(F)F)c2n1 [compound 66, 5-((3-(Difluoromethoxy)pyridin-2-yl)methyl)-7-(1-(2-fluoro-6-methylphenyl)piperidin-4-yl)-3-methylpyrido[2,3-b]pyrazin-6(5H)-one]
23 | < 0.5 µM | Non-Active | Cc1cnc2cc(N3CCN(c4c(C)cccc4F)CC3)c(=O)n(Cc3ncccc3C(F)(F)F)c2n1 [compound 67, 7-(4-(2-Fluoro-6-methylphenyl)piperazin-1-yl)-3-methyl-5-((3-(trifluoromethyl)pyridin-2-yl)methyl)pyrido[2,3-b]pyrazin-6(5H)-one]
24 | < 0.5 µM | Non-Active | Cc1cnc2cc(C3CCN(c4c(C)cccc4F)CC3)c(=O)n(Cc3ncccc3OC(F)(F)F)c2n1 [compound 68, 7-(1-(2-Fluoro-6-methylphenyl)piperidin-4-yl)-3-methyl-5-((3-(trifluoromethoxy)pyridin-2-yl)methyl)pyrido[2,3-b]pyrazin-6(5H)-one]
